Earlier results on one compound are cited in US20150141404A1, “NON-IONIC VESICLE FORMULATIONS OF CALCIUM CHANNEL BLOCKERS” (CONTRACT PHARMACEUTICALS LIMITED, priority 2012, published 2015).

The data set relates to anal fissure. The following applies: topical.

As to `COc1ccc([C@@H]2Sc3ccccc3N(CCN(C)C)C(=O)[C@@H]2OC(C)=O)cc1` [diltiazem, Diltiazem], the healing rates result is “improved” and the “maximum resting pressure (MRP)” value is “reduces”.
